Data: patent US20250114331A1, “CONCURRENT TARGETING OF ONCOGENIC PATHWAYS TO ENHANCE CHEMOTHERAPY AND IMMUNOTHERAPY” (THE JOHNS HOPKINS UNIVERSITY, priority 2021, published 2025)
Entries after “also recorded” stand apart in the source; their conditions may differ. Read-outs that look alike come from different tables or passages of the source.

Tests used:
[1] = test system: UPPL 595 cells; experiment: Wound healing; format: cell-based, mouse; conditions: VP treated versus control cells
[2] = test system: MB49, UPPL595 and BBN975; experiment: FABP4 expression and lipid droplet quantification after VP, mouse UCB cell lines; format: cell-based
Description: RNA extraction and quantitative reverse transcriptase polymerase chain reaction (Q-RT-PCR). Total RNA from cell lines was isolated using the RNeasy Plus Mini Kit (Qiagen, Germantown, USA), according to the manufacturer's protocol. This total RNA was converted to cDNA using the SuperScript III First-Strand Synthesis System (Life technologies, Carlsbad, USA), which was then used as a template for qRT-PCR. qRT-PCR was performed using the Fast SYBR Green Master Mix (Thermo Fisher Scientific, Waltham, USA) on a Quant studio 6 Fast Real-Time PCR System (Life technologies) in triplicate. SDS software (Applied Biosystems) was used to determine cycle threshold (Ct) values. The expression levels were quantified relative to β-actin using the 2-ΔΔCt method. YAP1 influences the accumulation of lipid droplets in cancer cells. […] Therefore, apart from investigating the altered regulation of intracellular signaling cascades, the present inventors also studied cellular metabolism in response to YAP1 modulation. […] It was reported that FABP4 is a critical molecule in accumulation of lipid droplets in the intracellular compartments (45). […] As increased amount of L-lactate correlated with more glycolysis and poor prognosis of cancer (46), the present inventors quantified L-lactate in mouse and human UCB cells with YAP1 modulation.

[3] = test system: H1299 xenografts; experiment: H1299 xenograft treatment; format: in vivo, NSG mice; conditions: verteporfin 50 mg/kg i.p. three times a week; S3I-201 5 mg/kg i.p. every day
Text: For therapeutic experiments, 4- to 5-week-old NOD/SCID/IL2Ry−/− (NSG) mice were obtained from the Johns Hopkins Medical Institute's (Baltimore, MD) animal care facility. We injected H1299 cells (1×106) and H1437 cells (1×106), which were suspended in the mixture as described above, subcutaneously into both flanks. For the patient-derived xenograft (PDX) models, 13 PDX blocks (CTG0162, 0178, 0502, 0848, 1309, 1351, 1358, 1361, 1762, 1885, 2017, 2481, and 2708) were obtained from Champion Oncology. All these PDXs were established from primary lung adenocarcinoma tumors. The tumor tissues were cut into 4×2 mm pieces and implanted in the subcutaneous spaces of both flanks. When tumor volumes reached to 200+50 mm3, mice were randomly assigned to six experimental groups [control, chemo (cisplatin+gemcitabine), chemo+verteporfin, chemo+S3I-201, “all” (cisplatin+gemcitabine+verteporfin+S3I-201), and verteporfin+S3I-201] at 5 mice per group. Cisplatin (Sigma-Aldrich; #P4394), gemcitabine (Medkoo; #100410), S3I-201 (MedKoo; #202541), and verteporfin (Sigma-Aldrich; #1711461) were used to treat the mice. Cisplatin (2.5 mg/kg) and gemcitabine (120 mg/kg) were administrated via intraperitoneal injection once a week (22). […] Each tumor volume was measured every 3 days. Therapeutic efficacy was evaluated from percentage change of the tumor volume compared with the tumor size before treatment.

[4] = test system: T24, BFTC905 and BFTC909; experiment: Lipid droplet quantification after VP, human UCB cell lines; format: cell-based; conditions: VP treated
Text: YAP1 influences the accumulation of lipid droplets in cancer cells. […] Therefore, apart from investigating the altered regulation of intracellular signaling cascades, the present inventors also studied cellular metabolism in response to YAP1 modulation. […] It was reported that FABP4 is a critical molecule in accumulation of lipid droplets in the intracellular compartments (45). […] It was also observed that when the culture media was supplemented with oleic acid (commonly used as an inducer for lipid droplet formation), there is an increase accumulation of lipid droplets in the YAP1 expressing cells compared to the KD cells (FIG. 29C). […] As increased amount of L-lactate correlated with more glycolysis and poor prognosis of cancer (46), the present inventors quantified L-lactate in mouse and human UCB cells with YAP1 modulation.

[5] = test system: H1299 and H1437 cells; experiment: Immunoblotting of YAP1, STAT3 and pSTAT3 after drug treatment; format: cell-based, human
Description: Western blotting. Cells were dissolved in RIPA buffer (Thermo Fisher Scientific) supplemented with proteinase inhibitor and phosphatase inhibitor cocktails (Roche, Mannheim, Germany). After total protein lysate was electrophoretically transferred onto PVDF membrane, the membrane was blocked with 5% skim milk in 0.05% TBS-Tween buffer and incubated at 4° C. overnight with a primary antibody specific to each protein. The membrane was then probed with an appropriate secondary antibody (Cell Signaling Technology, Danvers, USA). β-actin served as an endogenous control. The primary antibodies and dilution ratios were β-actin (Sigma-Aldrich; #A2228; 1:5000), NANOG (D73G4; Cell Signaling Technology; #4903; 1:1000), OCT4 (D705Z; Cell Signaling Technology; #75463; 1:500), SOX2 (EPR3131; Abcam, Cambridge, UK; #ab92494; 1:500), STAT3 (124H6; Cell Signaling Technology; #9139; 1:2000), pSTAT3 (D3A7; Cell Signaling Technology; #9145; 1:1000) and YAP1 (EP1674Y; Abcam, #ab52771; 1:2000).
To determine doses of these drugs that are effective for pathway inhibition, H1299 and H1437 cells were treated with verteporfin or S3I-201 for 72 hours.

In the case of C=Cc1c(C)c2cc3nc(cc4[nH]c(cc5nc(cc1[nH]2)C(C)=C5CCC(=O)O)c(CCC(=O)OC)c4C)[C@@]1(C)C3=CC=C(C(=O)OC)[C@H]1C(=O)OC [verteporfin, 3-[(23S,24R)-14-ethenyl-5-(3-methoxy-3-oxopropyl)-22,23-bis(methoxycarbonyl)-4,10,15,24-tetramethyl-25,26,27,28-tetraazahexacyclo[16.6.1.13,6.18,11.113,16.019,24]octacosa-1,3,5,7,9,11(27),12,14,16,18(25),19,21-dodecaen-9-yl]propanoic acid], the wound closure [1] is reported as “significant difference in wound closure”, the “expression level of FABP4” value [2] is reported as “significantly downregulated” and the tumor growth [3] is reported as “inhibited growth”. For the same compound, the “accumulation of intracellular lipid droplets” value [4] was “decreases the accumulation of intracellular lipid droplets”, the “STAT3 oligomerization (high molecular weight complexes)” value [5] was “STAT3 oligomerization upon verteporfin treatment in a dose dependent manner; also recorded: high molecular weight complexes (regions surrounded by circles) were increased” and the “YAP1 and total STAT3 protein expression” value [5] was “both YAP1 and total STAT3 expressions were suppressed”. For the same compound, the “YAP1 and total STAT3 protein expression” value ([5]; listed as Verteporfin) was “suppressed YAP1 and STAT3 expressions in H1299 and H1437 cells in a concentration dependent manner”.
